The text below walks through data of patent US10238713B2, “Cyclic tetrapeptides and therapeutic applications thereof” (LODZ UNIVERSITY OF TECHNOLOGY, priority 2010, dated 2019).

SMILES strings stand for the structures. Non-standard residues stand in square brackets, D forms with d. Residues, ends and D or L forms follow the SMILES beside them. *: point of attachment. Bip = N[C@@H](Cc1ccc(-c2ccccc2)cc1)C(=O)O; β3hW = N[C@H](CC(=O)O)Cc1c[nH]c2ccccc12; Phe(4-F) = N[C@@H](Cc1ccc(F)cc1)C(=O)O; Phe(4-I) = N[C@@H](Cc1ccc(I)cc1)C(=O)O; hPhe = N[C@@H](CCc1ccccc1)C(=O)O; β3hF = N[C@H](CC(=O)O)Cc1ccccc1; tBu = CC(C)(C)*

Data set [1] deals with mice, carrageenan-induced foot pad edema. Briefly: Carrageenan-induced foot-pad edema test. In kind it is in vivo, mouse. The settings on record: 4 h after carrageenan; peptides 250 μg i.p., DEX 25 μg i.p., 30 min before; FIGS. 17A-17C. The protocol:
(§1) In this and the air-pouch test, 1.5 mg peptide was dissolved in 300 μl of DMSO, then in 0.9% NaCl to achieve the desired dose (250 μg/0.2 ml or 100 μg/0.2 ml). Carrageenan (Sigma) was dissolved in 0.9% aqueous NaCl (overnight). 50 μl of 2% carrageenan solution was injected intradermally into hind foot pads. The peptides were given in a single 250 μg dose (0.2 ml) per mouse intraperitoneally (i.p.), 30 min before carrageenan administration. Dexamethasone (DEX) (Dexaven, Polfa, Poland), a reference drug, was given i.p. in dose 25 μg per mouse. Control mice were administered i.p. appropriately diluted solvent (DMSO in aqueous NaCl) instead of peptides. The foot pads of “background” (BG) mice were injected with 50 μl of 0.9% aqueous NaCl. Foot pad edema was measured with a spring caliper, 2 h, 3 h and 4 h after administration of carrageenan. The results are presented in FIGS. 17A, 17B and 17C as mean values of the antigen-specific increase of the foot pad thickness measured in 5 mice in each experimental group and expressed in mm ±SE (only results from measurements 4 h following administration of carrageenan are presented in figures). Statistics: FIG. 17A: Control vs: DEX P=0.0001; 4B8M P=0.0001; P25 NS (P=1.0000); P28 NS (P=1.0000); P31 NS (P=0.0528); P35 P=0.0008 (ANOVA of Kruskal-Wallis); FIG. 17B: Statistics: Control vs: P22 NS (P=1.0000); P26 NS (P=1.0000); P27 P=0.0050; P30 P=0.0004; P33-b NS (P=1.0000); SP00-b P=0.0001; P00S-b NS (P=1.0000) (ANOVA of Kruskal-Wallis); FIG. 17C: Statistics: Control vs: P21 P=0.0147; P23-2 P=0.0083; P24 P=0.0001; P29 NS (P=0.9999); P32 P=0.0001; P33 NS (P=0.6806); P34 NS (P=0.1920) (ANOVA).
A general note: The carrageenan paw model is a standard test of acute inflammation.

Data set [2] can be described thus: Solubility in the aqueous culture medium. Format: physicochemical. The protocol: RPMI-1640 medium (Cibi/Life Technologies, UK), fetal calf serum (FCS, Gibco), DMSO, phytohemagglutinin A (PHA), lipopolysaccharide (LPS) from E. coli strain O111:B4 (Sigma), […]-2,5-diphenyltetrazolium bromide (MTT), SDS and DMF (Sigma). The culture medium consisted of RPMI-1640, 10% addition of FCS, L-glutamine, sodium pyruvate, 2-mercaptoetanol and antibiotics (streptomycin and penicillin). Cyclic tetrapeptides were initially dissolved in DMSO (5 mg/ml), the dissolved in the culture medium to the desired concentration.
The effects of the peptides on PMBC survival in 24h culture are presented in FIGS. 8A, 8B, 8C, 8D, 8E and 8F. Peptide 4B8M (compound I-A) was included as a reference compound. Appropriate dilutions of DMSO were added to control cultures. […] In the figures, P01=compound I-D, P02=compound I-E, P03=compound I-F, P04=compound I-G, P05=compound I-H, P06=compound I-J, P07=compound I-K, P08=compound I-L, P10a=compound I-M, P10b=compound I-N, P11=compound I-O, P21=compound I-R, P-21b=compound I-Q, P22=compound I-S, P23-2=compound I-U, P24=compound I-V, P25=compound I-X, P25-i=compound I-W, P26=compound I-Y, P27=compound I-Z, P28=compound I-AA, P29=compound I-AB, P30=compound I-AC, P31=compound I-AD, P32=compound I-AE, P33=compound I-AG, P33-b=compound I-AF, P34=compound I-AH, P35=compound I-AI, P00S-b=compound I-AJ, SP00-b=compound I-AL.

The subject of data set [3] is mice, carrageenan air pouch. The data set can be described thus: Carrageenan air-pouch test (exudate cell number). The note with it: peptides 100 μg i.p. one hour before carrageenan, 24 h; FIGS. 18A-18B. In kind it is in vivo, mouse. The protocol: as §1
Air pouches were formed by subdermal injection into the dorsal region (in a halothane anesthesia) of 5 cm^3 of air (needle 23G x 11/4, 5 ml syringe). On day 3 the air pouches were given an additional 2 ml of air and an inflammatory process was elicited by an intra-pouch injection of 1% of carrageenan in 0.5 ml of 0.9% aqueous NaCl. The peptides were given i.p. at a dose of 100 μg one hour before carrageenan injection into the air pouch. The mice from the “background” (BG) group were given 0.9% aqueous NaCl i.p. and 0.9% aqueous NaCl into the air pouches. Control mice were given appropriately diluted DMSO i.p. and carrageenan into the air pouches. 24 h after carrageenan injection, the mice were sacrificed by cervical dislocation, the air pouches were supplemented with 1 ml of 0.9% aqueous NaCl and the exudates from the air pouches were aspirated using a syringe. The exudates were diluted with 0.9% aqueous NaCl and the cells were counted in a Bürker hemocytometer. Data are presented in FIGS. 18A and 18B as the mean values from 10 mice/group (cell number×10^6 per mouse) ±SE. Then the cells were centrifuged and 0.1 ml of the supernatant was saved for TNF-α determination (see Determination of TNF-α activity, above). The cell pellets were used to perform smears on microscopic glasses, which were stained with Giemsa and May-Grünwald reagents for evaluation of mast cell degranulation. Cell analysis was performed by a histologist using a light microscope and 1000× magnification. The content of intact and degranulated mast cells is given in percentage (mean values from 10 mice/group) ±SE. Statistics: FIG. 18A: BG vs Control P=0.0000; Control vs: DEX P=0.0034; 4B8M P=0.0005; P22 NS (P=0.7275); P26 P=0.0032; P27 NS (P=0.0659); P35 NS (P=1.0000) (ANOVA of Kruskal-Wallis); FIG. 18B: Control vs: P21 NS (P=0.322); P23-2 P=0.0020; P24 P=0.0001; P25 P=0.0418; P28 NS (P=0.3502); P29 NS (P=0.0582); P30 P=0.0006; P31 P=0.0078; P32 P=0.0340; P33 NS (P=0.9993); P34 NS (p=0.0566) (ANOVA).

The next data set deals with human PBMC. Briefly: Toxicity test: PBMC survival in 24 h culture (MTT). The note with it: ANOVA, FIGS. 8A-8F (4B8M repeated per figure).
The test system of data set [4] is PHA-induced proliferation of human peripheral blood mononuclear cells (PBMC). Briefly: Proliferative response of PBMC to PHA (MTT). Format: cell-based. The settings on record: four-day incubation, FIGS. 9A-9F.
Data set [5] has as its system concanavalin A-induced mouse splenocyte proliferation. Briefly: Proliferative response of splenocytes to concanavalin A (MTT). Format: cell-based. The protocol:
Spleens were pressed against a plastic screen into 0.83% NH4Cl solution to lyse erythrocytes (5 min incubation at room temperature). The cells were then washed twice with Hanks' medium, passed through glass wool column to remove debris, and re-suspended in the culture medium, referred to below as the “culture medium”, consisting of RPMI-1640, supplemented with 10% of fetal calf serum, L-glutamine, sodium pyruvate, 2-mercaptoethanol, streptomycin and penicillin (100 μg/ml). The cells were then distributed into 96-well flat-bottom tissue culture plates (Nunc) at a density of 2×10^5 cells/100 μl/well. Con A (2.5 μg/ml) was added to induce cell proliferation. The compounds were added to the cultures at doses of 1-100 μg/ml. After a three-day incubation, cell proliferation was determined using the colorimetric MTT method (Hansen M B, J Immunol Methods, 1989, 119, 203-210). The results were presented as the mean optical density (OD) at 550 nm ±SE from quadriplicate determinations (wells).

The next data set has as its system splenocytes. The data set can be described thus: Toxicity test on splenocytes (24 h, MTT). Format: cell-based, mouse. The settings on record: 100 μg/ml (printed 100 μg/m for I-C). The method, then: Cell survival was determined by MTT colorimetric method. The results were presented as mean optical density (OD) at 550 nm from 4 wells. The viability of cells in respective compound concentrations was compared to appropriate DMSO control groups (100% survival), corresponding to respective compound concentrations.

Protocol for human PBMC: PBMC were isolated by centrifugation on Ficoll-uropoline gradient (density 1.077 g/ml) (Lymphoprep; PAA Laboratories), at 800×g for 20 min at 4° C. The interphase cells, consisting of lymphocytes (20%) and monocytes (80%) were then washed three times with Hanks' medium and re-suspended in the culture medium at density of 2×10^6 cells/ml.
Appropriate dilutions of DMSO in RPMI 1640 medium were used as controls. Cell survival was determined by the MTT colorimetric method (Hansen et al., J. Immunol. Methods, 1989, pp. 203-210). The data are presented as a mean OD value from quadriplicate wells ±standard error (SE). The cultures “Control (−)” contained only cells in the culture medium.
The assay was performed per Hansen et al., J. Immunol. […] Briefly, 25 μl of MTT (5 mg/ml) stock solution was added per well at the end of cell incubation and the plates were incubated for 3 h in a cell culture incubator. Then, 100 μl of the extraction buffer (20% SDS with 50% DMF, pH 4.7) was added. After additional overnight incubation, the optical density was measured at 550 nm (Dynatech 5000).

Turning to `O=C1C[C@H](Cc2ccccc2)NC(=O)[C@@H]2CCCN2C(=O)[C@@H]2CCCN2C(=O)[C@H](Cc2ccc(-c3ccccc3)cc2)N1` [I-AH] (cyclo([Bip]PP[β3hF])), in data set [1], the “foot pad edema (increase of foot pad thickness), P vs Control” value was 0.1920. Also, the “solubility in the aqueous culture medium” value in data set [2] is given as “incomplete solubility”. The “air pouch exudate cell number, P vs Control” value in data set [3] was determined as 0.0566. Further, the “PBMC survival, P vs DMSO at appropriate dilution” value (from here on “PBMC survival, P vs DMSO”) with human PBMC (10 μg/ml) was determined as 0.0005; with human PBMC (100 μg/ml) it was 0.0001. In addition, the “PHA-induced PBMC proliferation, P vs DMSO at appropriate dilution” value in data set [4] (100 μg/ml) came to 0.001861.

Turning to `O=C1N[C@@H](Cc2ccccc2)CC(=O)N2CCC[C@H]2C(=O)N2CCC[C@H]2C(=O)N[C@H]1Cc1ccccc1` [I-B] (cyclo(F[β3hF]PP)), the “effect on concanavalin A-induced splenocyte proliferation” value in data set [5] (100 μg/ml) was “weak antiproliferative effect”; in data set [5] (lower concentrations (below 100 μg/ml)) it was “no such effect was observed”. In the data set with splenocytes, this molecule showed a toxicity to splenocytes of 30%.

With `O=C1C[C@H](Cc2ccccc2)NC(=O)[C@@H]2CCCN2C(=O)[C@@H]2CCCN2C(=O)[C@H](CCc2ccccc2)N1` [I-AI] (cyclo(PP[β3hF][hPhe])), the “foot pad edema (increase of foot pad thickness), P vs Control” value in data set [1] was 0.0008. The “solubility in the aqueous culture medium” value in data set [2] is reported as “incomplete solubility”. Moreover, the “air pouch exudate cell number, P vs Control” value in data set [3] is reported as 1.0000. Besides, the “PBMC survival, P vs DMSO” value in the data set with human PBMC (10 μg/ml) was determined as 0.0222; in the data set on human PBMC (100 μg/ml), 1.0000. In addition, the “PHA-induced PBMC proliferation, P vs DMSO at appropriate dilution” value in data set [4] (100 μg/ml) turned out to be 1.0000.

`O=C1C[C@H](Cc2ccccc2)NC(=O)[C@@H]2CCCN2C(=O)[C@@H]2CCCN2C(=O)[C@H](Cc2ccc(I)cc2)N1` [I-W] (cyclo(PP[β3hF][Phe(4-I)])): the “solubility in the aqueous culture medium” value in data set [2] was “incomplete solubility”. Further, the results for the “PBMC survival, P vs DMSO” value with human PBMC (10 μg/ml) and in the data set with human PBMC (100 μg/ml) were 0.9992 and 0.9602, respectively. The “PHA-induced PBMC proliferation, P vs DMSO at appropriate dilution” value in data set [4] (10 μg/ml) and in data set [4] (100 μg/ml) was 0.0001 in each case.

For the molecule `CC(C)(C)OC[C@@H]1NC(=O)[C@@H]2CCCN2C(=O)[C@H](Cc2ccccc2)NC(=O)C[C@H](Cc2ccccc2)NC1=O` [I-AJ] (cyclo(FPS(tBu)[β3hF])), the “foot pad edema (increase of foot pad thickness), P vs Control” value in data set [1] turned out to be 1.0000. Also, the “solubility in the aqueous culture medium” value in data set [2] is “incomplete solubility”. Besides, the “PBMC survival, P vs DMSO” value came out at 0.9962 in the data set on human PBMC (10 μg/ml) and 0.9250 with human PBMC (100 μg/ml). In addition, the results for the “PHA-induced PBMC proliferation, P vs DMSO at appropriate dilution” value in data set [4] (10 μg/ml) and in data set [4] (100 μg/ml) were 1.0000 and 0.7035, respectively.

As to `O=C1C[C@H](Cc2c[nH]c3ccccc23)NC(=O)[C@@H]2CCCN2C(=O)[C@@H]2CCCN2C(=O)[C@H](Cc2ccccc2)N1` [I-AE] (cyclo(FPP[β3hW])), the “foot pad edema (increase of foot pad thickness), P vs Control” value in data set [1] was found to be 0.0001. Besides, the “solubility in the aqueous culture medium” value in data set [2] is given as “incomplete solubility”. Besides, in data set [3], the “air pouch exudate cell number, P vs Control” value is 0.0340. The “PBMC survival, P vs DMSO” value in the data set on human PBMC (10 μg/ml) came out at 0.9954; in the data set on human PBMC (100 μg/ml), 0.9984. The “PHA-induced PBMC proliferation, P vs DMSO at appropriate dilution” value in data set [4] (10 μg/ml) is given as 0.0127; in data set [4] (100 μg/ml), 0.0023.

Consider `O=C1C[C@H](Cc2ccccc2)NC(=O)[C@@H]2CCCN2C(=O)[C@@H]2CCCN2C(=O)[C@H](Cc2ccc(F)cc2)N1` [I-X] (cyclo(PP[β3hF][Phe(4-F)])), for which the “foot pad edema (increase of foot pad thickness), P vs Control” value in data set [1] was 1.0000. Besides, in data set [2], the “solubility in the aqueous culture medium” value is on record as “incomplete solubility”. Further, the “air pouch exudate cell number, P vs Control” value in data set [3] turned out to be 0.0418. The “PBMC survival, P vs DMSO” value in the data set on human PBMC (10 μg/ml) is 0.8597; in the data set with human PBMC (100 μg/ml) it was 0.0001. Also, the “PHA-induced PBMC proliferation, P vs DMSO at appropriate dilution” value in data set [4] (100 μg/ml) worked out at 1.0000.
